Source: a melting point compilation (Tetko et al.; mined from patent text by program, amines drawn as free bases though some values may be those of a salt)

melting point [°C]	Structure (SMILES)
269 to 273	COc1ccc2c(c1)c1c(n2C(=O)c2ccc(Cl)cc2)CCC(C(=O)O)C1 (configuration not stated)
246 to 248	Cc1nc(-n2ccc(NC(=O)c3ccccc3)cc2=O)sc1C(=O)NCc1ccccc1
195 to 197	COc1cc2cnnc(Cl)c2cc1OC
90 to 93	O=C(NCC1CCCCC1)c1c(Cl)ccc2nc(CCCCc3nnn[nH]3)ccc12
116	CC(C)c1ccc(C(C)(C)C)c(O)c1C(=O)Nc1ccc(S(=O)(=O)C(F)(F)F)cc1Cl
108 to 109	CC1=C(C(=O)OCCOc2ccccc2)C(c2ccccc2C(F)(F)F)c2c(ccnc2OCC(C)C)N1 (configuration not stated)
173 to 174	Cc1nn(Cc2ccc(Cl)cc2)c(C)c1CC(=O)O
127 to 130	CCOC(=NC(=O)Nc1ccc(Oc2ncc(C(F)(F)F)cc2Cl)cc1)c1c(F)cccc1F
155 to 158	Cc1ccccc1NC(=O)Nc1ccc(C(=O)N2Cc3cccn3Cc3ccccc32)cc1
134 to 135	CCOP(=O)(/C=C/c1cn(-c2ccccc2)nc1OCc1ccc(OCc2nc(-c3ccco3)oc2C)nc1)OCC
157 to 160	Cc1nnn(CC(C)n2nnc3cc4c(=O)n(C5CC5)nnc4cc3c2=O)n1 (configuration not stated)
141 to 142	COc1ccc(CCCCOCc2cccc(/C=C/c3cccc(NC(=O)CCC(C)(C)C(=O)O)c3)n2)cc1
185 to 188	CCn1c(C(O)(C2CC2)C2CC2)nc(-c2ccncc2)c1-c1ccc(Cl)cc1
91 to 92	CC1(C)COc2cc3ccccc3c(=O)n21
206 to 208	CSc1ccc(-c2ccc(C(=O)Nc3ccc4cc(CN5CCCC5)cnc4c3C)cc2)cc1
170 to 172	CN1CCCC1CCNC(=O)Cn1c(-c2ccc(Cl)cc2)nc2cccnc21 (configuration not stated)
162 to 167	COc1cccc2c(=O)c(CO)cn(C)c12
96	C#CCOc1ccc(NCc2ccc(Cl)nc2)c(C(=O)c2ccc(C(C)C)cc2)c1
126 to 128	CCOC(=O)C(=O)Nc1c([N+](=O)[O-])sc2ccc(Cl)cc12
155 to 156	CC(C)c1cccc(CO)c1NC(=O)CC1c2ccccc2Oc2ccccc21
112 to 115	CCCCc1c(C(=O)OCC)cc(O)c2ccc(OC)cc12
199 to 201	Cc1nc2c3c(c(C(=O)N(C)C)cc2n1C)CC[C@@H](c1ccccc1F)O3
198 to 199	CC12CCC3C(CCC4CC(O)CCC43C)C1CC=C2c1cccnc1 (configuration not stated)
172 to 174	O=C(Nc1ccc(N2CC3CCC3C2)nc1)c1cc2cc(C(F)(F)F)cnc2n1Cc1cccc(F)c1 (configuration not stated)

melting point [°C]	Structure (SMILES)
65 to 67	COC(=O)C(Cc1ccccc1)Cc1ccc(OCCn2c(=O)sc3cc(C(=O)c4ccccc4)ccc32)cc1 (configuration not stated)
102 to 104	O=C(O)C1CCCN(C(=O)COC2CCN(C(=O)OCc3ccccc3)CC2)C1 (configuration not stated)
140 to 141	CS(=O)(=O)NC(=O)CCc1ccc(OC2CCc3cc(Cl)ccc32)cc1 (configuration not stated)
95 to 97	COC(=O)c1ccc(O)c(C(=O)CC(=O)c2ccccc2OCc2ccccc2)c1
122 to 124	Cc1ccc2c(c1)C(CCCCN1CCN(c3cccc(Cl)c3)CC1)C(=O)N2 (configuration not stated)
67 to 68	CC(C)c1c(Sc2cc(Cl)cc(Cl)c2)nc(COCCO)n1C
245 to 246	COc1ccc(-c2c(Cl)c(CN3C(=O)CCC3=O)nc3sc4c(c23)CCC(=O)C4(C)C)cc1
163 to 165	CCCCN(C)C(N)=C(C#N)C(N)=S
115 to 116	O=c1ccoc(C(OC2CCCCO2)c2ccccc2)c1OCc1ccccc1 (configuration not stated)
227 to 228	CCCc1nn2ncc(C(=O)OCC)c2n1Cc1ccc(-c2ccccc2-c2nc(=O)o[nH]2)cc1
76 to 77	CCOC(=O)C=Cc1cncc(OCc2ccccc2)c1
69 to 70	COC=C(C(=O)OC)c1ccc(OC(C)=O)cc1
48 to 49	CCOC(=O)c1ccc(I)nc1
177 to 180	O=C(O)CCc1cnoc1-c1ccc(Cl)c(Br)c1
67	COc1ccc(C(Cl)=CC(=O)C(F)(F)C(F)(F)F)cc1OC
89 to 91	CCOC(=O)C(C1c2ccccc2Oc2ccccc21)[N+](=O)[O-] (configuration not stated)
235 to 240	NC(=O)N1C(=O)C(C(=O)c2sccc2F)c2cc(Cl)ccc21 (configuration not stated)
217 to 218	COC(=O)/C=C/c1ccc(-c2nc(NC(C)=O)sc2Cc2ccc(S(C)(=O)=O)cc2)cc1
114 to 120	COC(=O)COc1cc(C)nc(NC(=O)NS(=O)(=O)c2cccs2)n1
39.3	CCN(CC)c1cccc2c1OC1(CC1)C2=O
> 260	N#Cc1cnc2sc(-c3ccc(CN)cc3)cc2c1Nc1ccc2[nH]ccc2c1
88 to 90	CN(C)CCCNC(=O)c1cccc(-c2nnc(CSCCOc3ccccc3)o2)c1
123 to 124	CC(C)(C)OC(=O)N1CCN(c2ccc(NC(=O)Nc3nc(C(C)(C)C)cs3)cc2)CC1
179 to 181	CC(=O)Oc1cc2c(c3ccccc13)Nc1ccccc1S2=O (configuration not stated)

melting point [°C]	Structure (SMILES)
209 to 211	Cc1cc(O)ccc1Nc1ccccc1C(=O)O
145 to 147	CNC(=O)C1(CCCN2CCCCC2)CC=CCC1c1ccccc1 (configuration not stated)
125 to 126	O=[N+]([O-])c1cc(CS(=O)(=O)CCO)ccc1CS(=O)(=O)CCO
189 to 192	COc1cc2c(cc1OC)[C@H]1CCCC[C@H]1N=C2c1ccc(C(C)=NO)cc1
166 to 169	CSC1C(=O)Nc2ccc(Oc3ccc(Cl)cc3)cc21 (configuration not stated)
71 to 75	CCCCCC(O)CCC1CCC(=O)C1CCCCC=CC(=O)O (configuration not stated)
254 to 255	COc1ccc2oc3cc(C#N)ccc3c(=O)c2c1
162 to 164	CN1CCN(c2ncc(-c3cc(Cl)cc(Cl)c3Cl)c(N)n2)CC1
77 to 78	Cc1c(C)c2c(c(C)c1NCc1ccccc1)C(c1ccc(-c3ccccc3)cc1)CO2 (configuration not stated)
199 to 205	Cn1c(COc2ccc(CC3SC(=O)NC3=O)cc2)nc2ccc(Oc3ccc4cccc(NC(=O)NS(=O)(=O)c5ccccc5)c4c3)cc21 (configuration not stated)
54	COc1cc(C=O)cc2c1OC1(CCCC1)C2
76 to 78	CCN(C(=O)c1ccccc1[Si](C)(C)C)C(OC)C(C)(C)C (configuration not stated)
92 to 94	Cc1c(C)c2ccc(OCCCN3CCC(N)CC3)cc2oc1=O
94 to 97	O=C(O)c1cccc(NC(=O)C(CS)Cc2cccnc2)c1 (configuration not stated)
116 to 117	CCOC(=O)C(C#N)C1CC(C)(C)NC(C)(C)C1 (configuration not stated)
179 to 180	CNC(=NC#N)NCCCCSc1nccc(NC(N)=NCC(F)(F)F)n1
190	CC#CCOc1ccc(S(=O)(=O)C(C(=O)NO)c2ccc(OC)cc2)cc1 (configuration not stated)
200 to 202	O=C(O)Cc1nn(CC(=O)Nc2cc(C(F)(F)F)ccc2Br)c(=O)c2ccccc12
79	CCNC(=NNc1c(Cl)cc(C(F)(F)F)cc1Cl)C1(C)CC1(Cl)Cl (configuration not stated)
140 to 141	CCCC(CCC)n1nnc2c(Nc3c(Br)cc(OC)cc3OC)nc(C)cc21
162	Cc1cccc(NC(=O)c2ccn3c2CSC3c2cccnc2)n1 (configuration not stated)
228	O=C(O)COc1c2c3c(ccnc3c3ccccc13)CCC2
120 to 122	COC(=O)c1cc(O)cc(OCCCOc2ccc(OCc3ccccc3)cc2)c1
> 300	CCC1=C(C#N)C(c2ccccc2Cl)c2c[nH]nc2N1 (configuration not stated)

melting point [°C]	Structure (SMILES)
205 to 208	Cc1ccc(-c2ccc3c(c2)C=C(C(=O)NC2CCN(C(=O)OC(C)(C)C)CC2)CCO3)cc1
139 to 141	COC(=O)c1cc(Cl)c2cccc(OC)c2n1
82 to 84	OCCN1CCN(c2nn(-c3ccc(C(F)(F)F)cc3)c3ccccc23)CC1
124 to 125	COc1coc2ccc(OCCCCCCN3CCC(O)CC3)cc2c1=O
50 to 51	CCOC(=O)COC(=O)c1c(Cl)cccc1Cl
156 to 157	CC[C@H](C)[C@H](OCc1ccccc1)[C@H]1[C@H]([N+](=O)[O-])[C@H](c2ccccc2)N[C@@H]1C(=O)NCC(=O)O
206 to 207	CCOC(=O)c1ccc(-c2nc(N)sc2Cc2ccc(S(C)(=O)=O)cc2)cc1
178 to 180	CCCc1nc2c(N)nc3ccccc3c2n1CC(C)(C)CC(C)=O
217 to 221	COC(=O)CCc1cc2cc(Cl)ccc2n1S(=O)(=O)c1ccc2nc(NC(C)=O)sc2c1
184 to 185	CNC(=O)c1cc(-c2ccc(OC)cc2)nn(CC=Cc2ccc(Cl)cc2)c1=O
164 to 168	CCOCCOc1ccc(-c2ccc3c(c2)C=C(C(=O)Nc2ccc(CN(C)C4CCOCC4)cc2)CCS3(=O)=O)cc1OCC
125 to 127	Cc1c(NS(=O)(=O)c2ccccc2)cc(C(C)(C)C)cc1SC1=C(O)CC(CCc2ccc(O)cc2)(C2CCCC2)OC1=O (racemic)
65	NC[C@H]1COc2ccc(F)c(-c3ccc(Cl)cc3Cl)c2O1
130 to 132	O=C(NC1CCN(CCC2CCOc3ccccc32)CC1)C1CCc2ccccc2C1 (configuration not stated)
109 to 113	O=C1CCC(=O)C1C(=O)c1ccc(Cl)cc1Cl
78 to 82	COC(=O)c1c(O)ccnc1C(F)(F)F
170 to 172	COc1nc(C)nc(NC(=O)NS(=O)(=O)c2cccnc2OC2CCCC2)n1
157 to 159	O=C(NC(=O)c1ccco1)NC1CCN(Cc2ccc3ccccc3c2)CC1
140 to 141	CC(Oc1ccc(Oc2ncc(C(F)(F)F)cc2Cl)cc1)C(=O)Nc1ccc(OC(F)(F)F)cc1 (configuration not stated)
168 to 170	Cc1c(F)ccc(C(=O)O)c1F
206 to 208	CCc1cc(C(=O)c2ccccc2Cl)c(-n2c(CNC(=O)c3ccc(Cl)c(Cl)c3)nnc2C2CCCCC2)s1
133	Fc1ccc(OCCCCN2CCC(NC3=Nc4ccccc4CS3)CC2)cc1

Structure (SMILES)	melting point [°C]
CC1(C)NC(=O)N(c2ccc([N+](=O)[O-])cc2)C1=O	176 to 177
Cc1c(C2(c3ccccc3)CCC(c3ccccc3)(N(C)C)CC2)[nH]c2ccccc12 (configuration not stated)	193 to 207
ClC(Cl)(Cl)c1nnc(Br)s1	39
